Results from patent US11021444B2, “Antiviral compounds” (priority 2013, dated 2021).
pEC50, pIC50: −log10 of the molar value. Where two headings read alike, the source gives them in different places.

Key:
[1] = test system: Respiratory Syncytial Virus (RSV) long strain; assay: microbe, parasite or virus in culture; format: cell-based; details: human respiratory syncytial virus, Tables A and B list compounds by EC50 band
How it was run: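 HEp-2 cells infected with 100 TCID50 virus per well, compounds in duplicate, 9-point 1/3 dilutions from 100 μM or 1 μM, 1% DMSO. After 5 days at 37 °C, cell viability (CPE protection) read by CCK-8 absorbance at 450 nm, 630 nm background.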

RSV replicon = assay: microbe, parasite or virus in culture; format: cell-based; details: human respiratory syncytial virus, read-out: EC50, the concentration of the drug required for reducing RSV replicon RNA by 50%
Procedure: The Renilla Luciferase Assay System (Promega, Cat. #E2820) was used to measure anti-RSV replicon activity. […] Luminescence was recorded using a Perkin Elmer multilabel counter Victor3V. EC50, the concentration of the drug required for reducing RSV replicon RNA by 50% in relation to the untreated cell control value, was calculated from the plot of percentage reductions of the optical density (OD) value against the drug concentrations using the Microsoft Excel forecast function.

recombinant RSV complex = recombinant RSV complex (Human respiratory syncytial virus A, UniProt P28887); assay: RSV Polymerase Inhibition Assay; format: biochemical
recombinant RSV complex, sequence (P28887 whole entry): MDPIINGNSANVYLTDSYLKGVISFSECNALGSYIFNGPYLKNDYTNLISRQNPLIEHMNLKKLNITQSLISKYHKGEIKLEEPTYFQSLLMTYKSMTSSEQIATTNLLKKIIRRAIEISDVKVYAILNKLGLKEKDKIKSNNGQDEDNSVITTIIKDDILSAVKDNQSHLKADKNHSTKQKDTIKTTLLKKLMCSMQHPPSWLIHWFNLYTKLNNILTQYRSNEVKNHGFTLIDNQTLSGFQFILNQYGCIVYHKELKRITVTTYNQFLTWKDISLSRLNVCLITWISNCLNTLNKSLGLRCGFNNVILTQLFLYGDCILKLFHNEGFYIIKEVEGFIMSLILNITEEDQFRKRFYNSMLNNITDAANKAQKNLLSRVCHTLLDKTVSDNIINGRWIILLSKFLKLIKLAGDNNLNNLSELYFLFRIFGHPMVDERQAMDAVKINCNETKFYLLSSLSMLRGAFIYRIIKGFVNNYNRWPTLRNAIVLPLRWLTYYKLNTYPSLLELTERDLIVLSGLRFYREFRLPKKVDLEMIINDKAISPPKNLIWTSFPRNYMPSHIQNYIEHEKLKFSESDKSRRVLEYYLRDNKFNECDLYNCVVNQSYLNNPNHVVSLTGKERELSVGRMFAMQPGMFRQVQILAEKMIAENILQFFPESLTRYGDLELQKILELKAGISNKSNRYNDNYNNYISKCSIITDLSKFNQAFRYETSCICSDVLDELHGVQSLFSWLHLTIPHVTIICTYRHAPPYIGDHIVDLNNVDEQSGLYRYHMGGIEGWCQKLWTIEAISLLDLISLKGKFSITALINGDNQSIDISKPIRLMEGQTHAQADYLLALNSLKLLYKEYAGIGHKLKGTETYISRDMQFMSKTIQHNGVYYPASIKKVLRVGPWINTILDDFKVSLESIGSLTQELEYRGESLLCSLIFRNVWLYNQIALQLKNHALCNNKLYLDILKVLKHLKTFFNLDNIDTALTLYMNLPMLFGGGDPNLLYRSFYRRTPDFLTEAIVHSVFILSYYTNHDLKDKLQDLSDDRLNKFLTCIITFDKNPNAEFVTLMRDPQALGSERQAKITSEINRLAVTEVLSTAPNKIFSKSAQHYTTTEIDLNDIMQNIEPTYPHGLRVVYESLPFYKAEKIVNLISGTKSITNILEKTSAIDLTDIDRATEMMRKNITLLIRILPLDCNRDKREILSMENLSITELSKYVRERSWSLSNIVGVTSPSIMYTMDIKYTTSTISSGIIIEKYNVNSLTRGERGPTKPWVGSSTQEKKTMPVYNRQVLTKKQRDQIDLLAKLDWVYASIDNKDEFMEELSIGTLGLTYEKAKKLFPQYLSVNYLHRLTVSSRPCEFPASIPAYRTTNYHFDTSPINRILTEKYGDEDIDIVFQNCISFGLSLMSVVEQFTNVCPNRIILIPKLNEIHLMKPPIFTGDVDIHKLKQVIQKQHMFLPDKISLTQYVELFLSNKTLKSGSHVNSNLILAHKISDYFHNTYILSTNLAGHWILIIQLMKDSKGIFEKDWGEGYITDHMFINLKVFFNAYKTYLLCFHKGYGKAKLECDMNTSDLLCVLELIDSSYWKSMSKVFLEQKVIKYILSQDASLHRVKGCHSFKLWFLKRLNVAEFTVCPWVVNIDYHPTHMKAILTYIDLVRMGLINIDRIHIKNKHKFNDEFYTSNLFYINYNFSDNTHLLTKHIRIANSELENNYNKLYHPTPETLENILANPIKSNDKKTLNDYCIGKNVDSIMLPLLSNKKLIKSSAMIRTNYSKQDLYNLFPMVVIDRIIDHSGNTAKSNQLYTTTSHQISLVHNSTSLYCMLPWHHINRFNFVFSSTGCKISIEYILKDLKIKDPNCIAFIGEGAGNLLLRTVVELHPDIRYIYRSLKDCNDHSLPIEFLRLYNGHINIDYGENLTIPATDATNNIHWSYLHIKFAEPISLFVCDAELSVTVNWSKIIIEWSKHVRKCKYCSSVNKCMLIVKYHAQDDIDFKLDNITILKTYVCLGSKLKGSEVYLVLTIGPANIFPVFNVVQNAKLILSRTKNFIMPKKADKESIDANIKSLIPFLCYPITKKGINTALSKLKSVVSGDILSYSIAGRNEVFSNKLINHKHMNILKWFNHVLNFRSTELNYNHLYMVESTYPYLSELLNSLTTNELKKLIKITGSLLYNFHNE
recombinant RSV complex, sequence (P03421 whole entry, further chain): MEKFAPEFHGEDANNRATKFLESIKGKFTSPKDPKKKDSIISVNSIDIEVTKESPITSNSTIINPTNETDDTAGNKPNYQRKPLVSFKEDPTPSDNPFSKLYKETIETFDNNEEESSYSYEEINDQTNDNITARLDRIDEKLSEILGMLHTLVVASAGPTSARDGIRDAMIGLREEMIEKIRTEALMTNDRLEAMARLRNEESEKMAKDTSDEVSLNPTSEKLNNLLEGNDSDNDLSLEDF
How it was run: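 10 nM recombinant RSV polymerase complex in Tris-HCl pH 7.5, 6 mM MgCl2 with RNA oligonucleotide template and radionucleotides, incubated 2 h at 30 °C with increasing inhibitor concentrations. Reaction stopped with EDTA; radiolabeled RNA product counted by scintillation.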

[2] = Cytotoxicity Determination (CCK-8, without addition of virus); format: cell-based; details: human, 50% cytotoxicity concentration (CC50)
How it was run: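 HEp-2 cells were seeded at 1,500 cells/well one day before compound addition. Compounds were tested without virus in duplicate over 7 points from 100 μM in 1/2 steps, with 1% final DMSO, 5 days at 37 °C, 5% CO2. Viability was read by CCK-8 after 3-4 hours.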

[3] = HEp-2, 120 h, read-out: 50% effective concentration (EC50), HEp-2 cells infected with RSV long strain, 5 days, CCK-8 readout
[4] = 120 h, read-out: 50% effective concentration (EC50), HEp-2 cells infected with RSV long strain, 5 days, CCK-8 readout

Row | SMILES | pEC50 [1, 3] | pEC50 (RSV replicon) | pIC50 (recombinant RSV complex) | CC50 at 5 days [2] | pEC50 [1, 4]
1 | COc1cc(C(=O)NCC(O)(c2ccc(OC)c(-c3ccc(F)c(Cl)c3)n2)C2CC2)ccc1OCC(N)=O (single isomer, unassigned) [Compound 431] | > 6.00 | > 6.00 | > 6.00 | 10 to 100 µM | –
2 | COc1cc(C(=O)NCC(O)(c2cc(C(C)(C)N)cc(-c3ccnc(Cl)c3)n2)C(F)(F)F)ccc1OC1CC1 (stereo not drawn) [Compound 558] | > 6.00 | > 6.00 | > 6.00 | 10 to 100 µM | –
3 | COc1cc(C(=O)NCC(O)(Cn2cccn2)c2cc3c(c(-c4ccc(F)c(Cl)c4)n2)OCC3(C)C)ccc1OC1CCNC1=O (stereo not drawn) [Compound 218] | > 6.00 | > 6.00 | > 6.00 | 10 to 100 µM | –
4 | COc1cc(C(=O)NCC(O)(c2ccc(OC)c(-c3ccc(F)c(Cl)c3)n2)C(F)(F)F)ccc1OCC(N)=O (stereo not drawn) [Compound 240] | – | > 6.00 | > 6.00 | 10 to 100 µM | > 6.00
5 | COc1cc(C(=O)NCC(O)(c2cc(CN)cc(-c3ccc(F)cc3)n2)C(F)(F)F)ccc1OC1CC1 (stereo not drawn) [Compound 361] | > 6.00 | > 6.00 | > 6.00 | 10 to 100 µM | –
6 | COc1cc(C(=O)NCC(O)(c2cc(CN)cc(-c3ccc(F)c(Cl)c3)n2)C(F)(F)F)ccc1OC1CC1 (stereo not drawn) [Compound 327] | > 6.00 | > 6.00 | > 6.00 | 10 to 100 µM | –
7 | COc1cc(C(=O)NCC(=O)c2cc3c(c(-c4ccc(F)c(Cl)c4)n2)OCC3(C)C)ccc1OCCO [Compound 140] | – | > 6.00 | > 6.00 | 10 to 100 µM | > 6.00
8 | COc1cc(C(=O)NCC(O)(Cn2ccnn2)c2ccc(OC)c(-c3ccc(F)c(Cl)c3)n2)ccc1OCCO (stereo not drawn) [Compound 192] | > 6.00 | > 6.00 | > 6.00 | > 100 µM | –
9 | CC#CC(O)(CNC(=O)c1ccc(OCCF)c(OC)c1)c1ccc(OC)c(-c2ccc(F)c(Cl)c2)n1 (stereo not drawn) [Compound 124] | > 6.00 | > 6.00 | > 5.00 | 10 to 100 µM | –
10 | COc1cc(C(=O)NCC(C)(O)c2ccc(OC)c(-c3ccc(F)c(Cl)c3)n2)ccc1OC(C)(C)C (stereo not drawn) [Compound 371] | > 6.00 | > 6.00 | > 6.00 | 10 to 100 µM | –
11 | COc1cc(C(=O)NCC(O)(c2cc(C(C)(C)N)cc(-c3ccc(F)c(Cl)c3)n2)C(F)(F)F)ccc1OCS(N)(=O)=O (stereo not drawn) [Compound 637] | 4.30 to 6.00 | > 6.00 | > 6.00 | 10 to 100 µM | –
12 | COc1cc(C(=O)NCC(O)(c2ccc(OC)c(-c3ccc(F)c(Cl)c3)n2)C(F)F)ccc1OCCO (stereo not drawn) [Compound 436] | > 6.00 | > 6.00 | > 6.00 | 10 to 100 µM | –
13 | COc1cc(C(=O)NCC(C)(F)c2ccc(OC)c(-c3ccc(F)c(Cl)c3)n2)ccc1OCCF (stereo not drawn) [Compound 364] | > 6.00 | > 6.00 | > 6.00 | 10 to 100 µM | –
14 | CC(C)(N)c1cc(-c2ccc(F)cc2)nc(C(O)(CNC(=O)c2ccc3c(c2)CC(=O)N3)C(F)(F)F)c1 (stereo not drawn) [Compound 571] | > 6.00 | > 6.00 | > 6.00 | 10 to 100 µM | –
15 | COc1cc(C(=O)NCC(O)(c2cc3c(c(-c4ccc(Cl)cc4)n2)OCC3(C)N)C(F)(F)F)ccc1CO[C@@H](C)O (stereo partly drawn) [Compound 646] | > 6.00 | > 6.00 | > 6.00 | 10 to 100 µM | –
16 | COc1cc(C(=O)NCC(O)(CNC(C)=O)c2ccc(OC)c(-c3ccc(F)c(Cl)c3)n2)ccc1OCCO (stereo not drawn) [Compound 195] | > 6.00 | > 6.00 | > 6.00 | > 100 µM | –
17 | COc1cc(C(=O)NCC(O)(c2cc(C(C)(N)CF)cc(-c3ccc(F)cc3)n2)C(F)(F)F)ccc1OC[C@@H](C)O (stereo partly drawn) [Compound 614] | > 6.00 | > 6.00 | > 6.00 | 10 to 100 µM | –
18 | COc1cc(C(=O)NCC(O)(c2cc(C3(N)COC3)cc(-c3ccc(F)cc3)n2)C(F)(F)F)ccc1OC1CC1 (stereo not drawn) [Compound 595] | > 6.00 | > 6.00 | > 6.00 | 10 to 100 µM | –
19 | COc1cc(C(=O)NCC(O)(c2cc(C(C)(C)NC(C)=O)cc(-c3ccc(F)c(Cl)c3)n2)C(F)(F)F)ccc1OC1CC1 (stereo not drawn) [Compound 326] | > 6.00 | > 6.00 | > 6.00 | 10 to 100 µM | –
20 | COc1cc(C(=O)NCC(O)(c2cc3c(c(-c4ccc(F)c(Cl)c4)n2)NCC3(C)C)C(F)(F)F)ccc1OC1CC1 (stereo not drawn) [Compound 335] | > 6.00 | > 6.00 | > 6.00 | > 100 µM | –

Row | SMILES | pEC50 [1, 3] | pEC50 (RSV replicon) | pIC50 (recombinant RSV complex) | CC50 at 5 days [2] | pEC50 [1, 4]
21 | COc1cc(C(=O)NC[C@](O)(c2cc(C(C)(C)N)cc(-c3ccc(F)cc3)n2)C(F)(F)F)ccc1OC[C@@H](C)O [Compound 546] | > 6.00 | > 6.00 | > 6.00 | 10 to 100 µM | –
22 | CNC(C)(C)c1cc(-c2ccc(F)c(Cl)c2)nc(C(O)(CNC(=O)c2ccc(OCCO)c(OC)c2)C(F)(F)F)c1 (stereo not drawn) [Compound 491] | > 6.00 | > 6.00 | > 6.00 | 10 to 100 µM | –
23 | COc1cc(C(=O)NCC(O)(c2cc3c(c(-c4ccc(Cl)cc4)n2)OCC3(C)N)C(F)(F)F)ccc1OCCO (stereo not drawn) [Compound 640] | – | > 6.00 | > 6.00 | 10 to 100 µM | > 6.00
24 | COc1cc(C(=O)NCC(O)(c2cc3c(c(-c4ccc(F)c(Cl)c4)n2)OCC3N)C(F)(F)F)ccc1OC1CC1 (stereo not drawn) [Compound 525] | > 6.00 | > 6.00 | > 6.00 | 10 to 100 µM | –
25 | COc1cc(C(=O)NCC(C)(O)c2ccc(OC)c(-c3ccc(F)c(Cl)c3)n2)ccc1OCCF (stereo not drawn) [Compound 119] | > 6.00 | > 6.00 | > 6.00 | 10 to 100 µM | –
26 | COc1cc(C(=O)NCC(O)(c2ccc(OC)c(-c3ccc(F)c(Cl)c3)n2)C2CC2)ccc1OCCF (stereo not drawn) [Compound 123] | > 6.00 | > 6.00 | > 6.00 | > 100 µM | –
27 | COc1cc(C(=O)NCC(O)(c2cc3c(c(-c4ccc(F)c(Cl)c4)n2)OCCC3(C)C)C2CC2)ccc1OCCO (stereo not drawn) [Compound 312] | > 6.00 | > 6.00 | > 6.00 | 10 to 100 µM | –
28 | COc1cc(C(=O)NCC(O)(c2cc3c(c(-c4ccc(F)c(Cl)c4)n2)OCCC3)C2CC2)ccc1OCCO (stereo not drawn) [Compound 309] | > 6.00 | > 6.00 | > 6.00 | 10 to 100 µM | –
29 | COc1cc(C(=O)NCC(O)(Cn2nccn2)c2ccc(OC)c(-c3ccc(F)c(Cl)c3)n2)ccc1OCCO (stereo not drawn) [Compound 193] | > 6.00 | > 6.00 | > 6.00 | 10 to 100 µM | –
30 | COc1cc(C(=O)NCC(F)(c2ccc(OC)c(-c3ccc(F)c(Cl)c3)n2)C(F)(F)F)ccc1OCC(N)=O (stereo not drawn) [Compound 343] | > 6.00 | > 6.00 | > 6.00 | 10 to 100 µM | –
31 | COc1cc(C(=O)NCC(O)(c2cc(C(C)(C)N)cc(-c3ccc(C#N)cc3)n2)C(F)(F)F)ccc1OCCO (stereo not drawn) [Compound 623b] | > 6.00 | > 6.00 | > 6.00 | > 100 µM | –
32 | COc1cc(C(=O)NCC(O)(c2cc(C(C)(C)NS(C)(=O)=O)cc(-c3ccc(F)c(Cl)c3)n2)C(F)(F)F)ccc1OC1CC1 (stereo not drawn) [Compound 330] | – | > 6.00 | > 6.00 | 10 to 100 µM | > 6.00
33 | CCOc1ccc(C(=O)NCC(O)(c2cc(C(C)(C)N)cc(-c3ccc(F)c(Cl)c3)n2)C(F)(F)F)cc1OC (stereo not drawn) [Compound 315] | > 6.00 | > 6.00 | > 6.00 | 10 to 100 µM | –
34 | COc1cc(C(=O)NCC(O)(c2cc3c(c(-c4ccc(F)c(Cl)c4)n2)CNC3(C)C)C(F)(F)F)ccc1OC1CC1 (stereo not drawn) [Compound 526] | > 6.00 | > 6.00 | > 6.00 | 10 to 100 µM | –
35 | COc1cc(C(=O)NCC(O)(c2cc3c(c(-c4ccc(F)c(Cl)c4)n2)OCC3(C)C)C2CC2)cc2cccnc12 (stereo not drawn) [Compound 224] | > 6.00 | > 6.00 | > 6.00 | 10 to 100 µM | –
36 | COCC(C)(N)c1cc(-c2ccc(F)c(Cl)c2)nc(C(O)(CNC(=O)c2ccc(OC3CC3)c(OC)c2)C(F)(F)F)c1 (stereo not drawn) [Compound 535] | > 6.00 | > 6.00 | > 6.00 | 10 to 100 µM | –
37 | COc1cc(C(=O)NCC(O)(CF)c2ccc(OC)c(-c3ccc(F)c(Cl)c3)n2)ccc1OCCO (stereo not drawn) [Compound 424] | > 6.00 | > 6.00 | > 6.00 | 10 to 100 µM | –
38 | COc1cc(C(=O)NCC(F)(c2ccc(OC)c(-c3ccc(F)c(Cl)c3)n2)C(F)(F)F)ccc1OC1CCNC1=O (stereo not drawn) [Compound 344] | > 6.00 | > 6.00 | > 6.00 | 10 to 100 µM | –
39 | COc1cc(C(=O)NCC(O)(c2cc(C(C)(C)NC(C)=N)cc(-c3ccc(F)c(Cl)c3)n2)C(F)(F)F)ccc1OC1CC1 (stereo not drawn) [Compound 579] | > 6.00 | > 6.00 | > 6.00 | 10 to 100 µM | –
